Results reported in publication PMC12892976, “Alkylation-based optimization of antifungal FPPS inhibitors yields a potent, broad-spectrum lipophilic zoledronate derivative” (mBio, 2025).
Values after ≈ are worked out from the molar mass of the structure shown. Read-outs that look alike come from different tables or passages of the source.

What was measured:
[1] = tested on: Saccharomyces cerevisiae; experiment: MIC/MFC broth microdilution (CLSI); assay type: cell-based; conditions: Saccharomyces cerevisiae S288c
Method: (§1) Antifungal susceptibility was determined by broth microdilution according to the CLSI guidelines described in M27-Ed4 ([16]). […] MFC was determined by back-plating drug-treated cultures from MIC broths onto SDA plates. The MFC was defined as the lowest concentration from which no colonies could be cultured.

[2] = tested on: Candida albicans; experiment: MIC/MFC broth microdilution (CLSI); assay type: cell-based; conditions: Candida albicans SC5314
Method: as §1

[3] = tested on: Cryptococcus deuterogattii; experiment: checkerboard drug interaction (FICI, MICc);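 for all read-outs here: simplified diagonal checkerboard screen pairing antifungal drugs with FPPS inhibitors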; assay type: cell-based; conditions: C. deuterogattii; for INH FD (MIC-MICc fold decrease): fold decrease of inhibitor MIC
Method: (§2) Drug interactions between antifungals and FPPS inhibitors were investigated using a simplified checkerboard diagonal screening method ([45]). […] FICIs were determined according to the Loewe additivity model ([17]).

[4] = tested on: Cryptococcus neoformans; experiment: checkerboard drug interaction (FICI, MICc);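 for all read-outs here: antifungal plus FPPS inhibitor pairs tested against Cryptococcus neoformans by simplified diagonal checkerboard screening, FICI computed under the Loewe additivity model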; assay type: cell-based; conditions: C. neoformans; for INH FD (MIC-MICc fold decrease): fold decrease of inhibitor MIC
Method: as §2

[5] = tested on: Saccharomyces cerevisiae; experiment: checkerboard drug interaction (FICI, MICc); assay type: cell-based; set-up: INH MICc / INH MICc (ITR:INH) / INH MICc (KET:INH) / INH MICc (FLC:INH): unit not given beside the values;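 note: simplified diagonal checkerboard screen pairing antifungals with FPPS inhibitors, FICI calculated under the Loewe additivity model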
[6] = tested on: Candida glabrata; experiment: checkerboard drug interaction (FICI, MICc);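 for all read-outs here: simplified diagonal checkerboard screen pairing antifungals with FPPS inhibitors, FICI calculated under the Loewe additivity model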; assay type: cell-based; conditions: C. glabrata; for INH FD (MIC-MICc fold decrease): fold decrease of inhibitor MIC
Method: as §2

[7] = tested on: Candida albicans; experiment: checkerboard drug interaction (FICI, MICc);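 for all read-outs here: antifungal plus FPPS inhibitor combinations on Candida albicans tested by a simplified diagonal checkerboard screen, with FICI calculated under the Loewe additivity model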; assay type: cell-based; conditions: C. albicans; for INH FD (MIC-MICc fold decrease): fold decrease of inhibitor MIC
Method: as §2

[8] = tested on: Aspergillus flavus; experiment: checkerboard drug interaction (FICI, MICc);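 note: simplified diagonal checkerboard screen pairing azole antifungals with FPPS inhibitors, FICI calculated under the Loewe additivity model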; assay type: cell-based; set-up: INH MICc (KET:INH) / INH MICc (FLC:INH): unit not given beside the values; conditions: A. flavus
[9] = tested on: Aspergillus fumigatus; experiment: checkerboard drug interaction (FICI, MICc); assay type: cell-based;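 note: simplified diagonal checkerboard screen pairing antifungals with FPPS inhibitors against Aspergillus fumigatus, with FICI calculated under the Loewe additivity model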
Method: as §2

[10] = tested on: Trichophyton rubrum; experiment: checkerboard drug interaction (FICI, MICc);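 note: simplified diagonal checkerboard screen pairing azole antifungals with FPPS inhibitors, FICI calculated under the Loewe additivity model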; assay type: cell-based; conditions: T. rubrum
Method: as §2

[11] = tested on: HEK-293T cells; experiment: MTT reduction cytotoxicity assay; assay type: cell-based; conditions: Homo sapiens, HEK-293T, 72 h, MTT, 72 h
[12] = tested on: eight fungal species; experiment: MIC/MFC summary across the eight fungal species of Table 1; assay type: cell-based
Method: The antifungal activity of these compounds was evaluated according to CLSI guidelines ([16]).

[13] = tested on: eight fungal species; experiment: checkerboard interaction with azoles, summary across the eight species; assay type: cell-based; conditions: geometric mean MIC in combination with azoles
Text: Synergy between lipophilic FPPS inhibitors and azole antifungals was investigated by determining the fractional inhibitory concentration index (FICI) (Fig. 2; Table S1 Fig. S1) ([17]). […]. Derivatives PLA9 and 11, and PDA9, 11, and 12 antagonized azoles in C. albicans, C. neoformans, and C. deuterogattii, yet were largely synergistic in C. glabrata and S. cerevisiae. […].

[14] = tested on: Cryptococcus deuterogattii; experiment: MIC/MFC broth microdilution (CLSI); conditions: Cryptococcus deuterogattii;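 note: broth microdilution per CLSI M27-Ed4. MFC is the lowest concentration yielding no colonies when MIC broths are subcultured onto SDA plates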
Method: as §1

[15] = tested on: Cryptococcus neoformans; experiment: MIC/MFC broth microdilution (CLSI); conditions: Cryptococcus neoformans;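 note: susceptibility testing followed the CLSI M27-Ed4 broth microdilution document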
Method: as §1

[16] = tested on: Candida glabrata; experiment: MIC/MFC broth microdilution (CLSI); conditions: Nakaseomyces glabratus, CBS138;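 note: broth microdilution following CLSI M27-Ed4, MFC taken as the lowest drug level yielding no growth once MIC wells were subcultured on SDA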
Method: as §1

[17] = tested on: Aspergillus flavus; experiment: MIC/MFC broth microdilution (CLSI); conditions: ATCC204304
Method: as §1

[18] = tested on: Aspergillus fumigatus; experiment: MIC/MFC broth microdilution (CLSI); conditions: ATCC204305
Method: as §1

[19] = tested on: Trichophyton rubrum; experiment: MIC/MFC broth microdilution (CLSI); conditions: Trichophyton rubrum
Method: as §1

[20] = FLC:INH combination, MIC of the inhibitor in combination with FLC
[21] = FLC:INH combination, fold decrease of FLC MIC
[22] = ITR:INH combination, MIC of the inhibitor in combination with ITR
[23] = ITR:INH combination, fold decrease of ITR MIC
[24] = KET:INH combination, MIC of the inhibitor in combination with KET
[25] = KET:INH combination, fold decrease of KET MIC
[26] = Fractional Inhibitory Concentration Index, fluconazole + inhibitor
[27] = Fractional Inhibitory Concentration Index, itraconazole + inhibitor
[28] = Fractional Inhibitory Concentration Index, ketoconazole + inhibitor
[29] = MIC of the inhibitor in combination with fluconazole
[30] = MIC of the inhibitor in combination with itraconazole
[31] = MIC of the inhibitor in combination with ketoconazole
[32] = MIC-MICc fold decrease of fluconazole, negative = increase
[33] = MIC-MICc fold decrease of itraconazole, negative = increase
[34] = MIC-MICc fold decrease of ketoconazole, negative = increase
[35] = MIC-MICc fold decrease of the inhibitor, with fluconazole
[36] = MIC-MICc fold decrease of the inhibitor, with itraconazole
[37] = MIC-MICc fold decrease of the inhibitor, with ketoconazole

Structure (SMILES): CCCCCCCCCCCCN1CCC[C@H]1C(=O)N[C@H](CC(=O)OC)C(=O)OC [dmPDA12]
- MFC [1]: > 128 µg/mL
- MIC [1]: 64 µg/mL (≈ 150 µM)
- MFC [2]: > 128 µg/mL
- MIC [2]: > 128 µg/mL
- FICI ([3]; FLC:INH combination): 2
- INH MICc [3, 20]: 64
- FLC FD (MIC-MICc fold decrease) [3, 21]: 1
- INH FD (MIC-MICc fold decrease) ([3]; FLC:INH combination): 1
- FICI ([3]; ITR:INH combination): 0.38
- INH MICc [3, 22]: 8
- ITR FD (MIC-MICc fold decrease) [3, 23]: 4
- INH FD (MIC-MICc fold decrease) ([3]; ITR:INH combination): 8
- FICI ([3]; KET:INH combination): 0.16
- INH MICc [3, 24]: 8
- KET FD (MIC-MICc fold decrease) [3, 25]: 32
- INH FD (MIC-MICc fold decrease) ([3]; KET:INH combination): 8
- FICI ([4]; FLC:INH combination): 1.25
- INH MICc [4, 20]: 8
- FLC FD (MIC-MICc fold decrease) [4, 21]: 4
- INH FD (MIC-MICc fold decrease) ([4]; FLC:INH combination): 1
- FICI ([4]; ITR:INH combination): 1.25
- INH MICc [4, 22]: 8
- ITR FD (MIC-MICc fold decrease) [4, 23]: 4
- INH FD (MIC-MICc fold decrease) ([4]; ITR:INH combination): 1
- FICI ([4]; KET:INH combination): 1.25
- INH MICc [4, 24]: 8
- KET FD (MIC-MICc fold decrease) [4, 25]: 4
- INH FD (MIC-MICc fold decrease) ([4]; KET:INH combination): 1
- FICI (FLC:INH) [5, 26]: 0.75
- FICI (ITR:INH) [5, 27]: 1.06
- FICI (KET:INH) [5, 28]: 0.56
- INH MICc (FLC:INH) [5, 29]: 32
- INH MICc (ITR:INH) [5, 30]: 4
- INH MICc (KET:INH) [5, 31]: 32
- FLC FD (FLC:INH) [5, 32]: 4
- ITR FD (ITR:INH) [5, 33]: 1
- KET FD (KET:INH) [5, 34]: 16
- INH FD (FLC:INH) [5, 35]: 2
- INH FD (ITR:INH) [5, 36]: 16
- INH FD (KET:INH) [5, 37]: 2
- FICI ([6]; FLC:INH combination): 2.5
- INH MICc [6, 20]: 8
- FLC FD (MIC-MICc fold decrease) [6, 21]: 2
- INH FD (MIC-MICc fold decrease) ([6]; FLC:INH combination): 1
- FICI ([6]; ITR:INH combination): 1.5
- INH MICc [6, 22]: 4
- ITR FD (MIC-MICc fold decrease) [6, 23]: 2
- INH FD (MIC-MICc fold decrease) ([6]; ITR:INH combination): 2
- FICI ([6]; KET:INH combination): 0.38
- INH MICc [6, 24]: 1
- KET FD (MIC-MICc fold decrease) [6, 25]: 8
- INH FD (MIC-MICc fold decrease) ([6]; KET:INH combination): 8
- FICI ([7]; FLC:INH combination): 1.06
- INH MICc [7, 20]: 8
- FLC FD (MIC-MICc fold decrease) [7, 21]: 1
- INH FD (MIC-MICc fold decrease) ([7]; FLC:INH combination): 16
- FICI ([7]; ITR:INH combination): 0.53
- INH MICc [7, 22]: 4
- ITR FD (MIC-MICc fold decrease) [7, 23]: 2
- INH FD (MIC-MICc fold decrease) ([7]; ITR:INH combination): 32
- FICI ([7]; KET:INH combination): 0.53
- INH MICc [7, 24]: 4
- KET FD (MIC-MICc fold decrease) [7, 25]: 2
- INH FD (MIC-MICc fold decrease) ([7]; KET:INH combination): 32
- FICI (FLC:INH) [8, 26]: 1.5
- FICI (ITR:INH) [8, 27]: 0.28
- FICI (KET:INH) [8, 28]: 0.27
- INH MICc (FLC:INH) [8, 29]: 128
- INH MICc (ITR:INH) [8, 30]: 8
- INH MICc (KET:INH) [8, 31]: 4
- FLC FD (FLC:INH) [8, 32]: 1
- ITR FD (ITR:INH) [8, 33]: 4
- KET FD (KET:INH) [8, 34]: 4
- INH FD (FLC:INH) [8, 35]: 2
- INH FD (ITR:INH) [8, 36]: 32
- INH FD (KET:INH) [8, 37]: 64
- FICI (FLC:INH) [9, 26]: 1.5
- FICI (ITR:INH) [9, 27]: 0.26
- FICI (KET:INH) [9, 28]: 2
- INH MICc (FLC:INH) [9, 29]: 128
- INH MICc (ITR:INH) [9, 30]: 1
- INH MICc (KET:INH) [9, 31]: 128
- FLC FD (FLC:INH) [9, 32]: 2
- ITR FD (ITR:INH) [9, 33]: 4
- KET FD (KET:INH) [9, 34]: 1
- INH FD (FLC:INH) [9, 35]: 1
- INH FD (ITR:INH) [9, 36]: 128
- INH FD (KET:INH) [9, 37]: 1
- FICI (FLC:INH) [10, 26]: ≥4
- FICI (ITR:INH) [10, 27]: ≥4
- FICI (KET:INH) [10, 28]: ≥4
- INH MICc (FLC:INH) [10, 29]: 32
- INH MICc (ITR:INH) [10, 30]: 32
- INH MICc (KET:INH) [10, 31]: 32
- FLC FD (FLC:INH) [10, 32]: -2
- ITR FD (ITR:INH) [10, 33]: 8
- KET FD (KET:INH) [10, 34]: 4
- INH FD (FLC:INH) [10, 35]: -4
- INH FD (ITR:INH) [10, 36]: -4
- INH FD (KET:INH) [10, 37]: -4
- IC50 ([11]; HEK-293T cells, read-out: IC50): 0.161 µg/mL (≈ 0.377 µM)
- IC50 ([11]; read-out: HEK IC50): 0.161 µg/mL (≈ 0.377 µM)
- MFC ([12]; across eight species, read-out: Geometric mean MFC): 140 µg/mL (≈ 327 µM)
- MIC ([12]; geometric mean across eight species, read-out: GM fungal MIC): 49.4 µg/mL (≈ 116 µM)
- MIC ([12]; read-out: Geometric mean MIC): 49.4 µg/mL (≈ 116 µM)
- GM fungal MICc [13]: 12
- MFC [14]: 32 µg/mL (≈ 75 µM)
- MIC [14]: 8 µg/mL (≈ 18.8 µM)
- MFC [15]: 32 µg/mL (≈ 75 µM)
- MIC [15]: 8 µg/mL (≈ 18.8 µM)
- MFC [16]: 128 µg/mL (≈ 300 µM)
- MIC [16]: 128 µg/mL (≈ 300 µM)
- MFC [17]: > 128 µg/mL
- MIC [17]: > 128 µg/mL
- MFC [18]: > 128 µg/mL
- MIC [18]: 128 µg/mL (≈ 300 µM)
- MFC [19]: > 128 µg/mL
- MIC [19]: 8 µg/mL (≈ 18.8 µM)
